Assay results published in EP4772514A1, “MACROCYCLIC COMPOUNDS, PREPARATION METHOD THEREFOR, AND USE THEREOF” (Genfleet Therapeutics (Shanghai) Inc., priority 2023, dated 2025).

What was measured:
Assay type in all cases: cell-based
[1] = tested on: p-ERK; experiment: Cell p-ERK assay (HTRF, Advance ERK phospho-T202/Y204 kit) in AsPC-1 cells; details: ASPC1; AsPC-1, human pancreatic cancer cell strain, KRAS G12D mutation; 3 h compound incubation
Experimental: AsPC-1 cells were purchased from ATCC, Cat. No. CRL-1682; NCI-H441 cells were purchased from ATCC, Cat. No. HTB-174; RPMI-1640 medium was purchased from Gibco, Cat. No. 11875-093; FBS was purchased from Gibco, Cat. No. 10099-141C; penicillin/streptomycin double-antibiotic solution (PS) was purchased from Gibco, Cat. No. 15140-122; trypsin (containing EDTA) was purchased from Gibco, Cat. No. 25200-072; DMSO was purchased from VWRAMRESCO, Cat. No. 0231-500ML; 96-well cell culture plates were purchased from Corning, Cat. No. 3599; white-bottomed, opaque 96-well plates were purchased from Cisbio, Cat. No. 66PL96025; Advance ERK phospho-T202/Y204 kit was purchased from Cisbio, Cat. No. 64AERPEH; cell counter was purchased from CHEMOMETEC, model: NC-200; microplate reader was purchased from PerkinElmer, model: EnVision.
AsPC-1, a human pancreatic cancer cell strain endogenously containing a KRAS^G12D mutation, was cultured in a complete medium containing RPMI-1640 + 10% FBS + 1% PS. NCI-H441, a human non-small cell lung cancer cell strain endogenously containing a KRAS^G12V mutation, was cultured in a complete medium containing RPMI-1640 + 10% FBS + 1% PS.
The cells were digested with trypsin (containing EDTA), collected in their corresponding complete media, and counted. The density of the cell suspensions was adjusted with their corresponding complete media, and AsPC-1 cells (10000 cells/well) or NCI-H441 cells (20000 cells/well) were seeded into a 96-well cell culture plate, with the volume of the medium in each well being 80 µL. The cell culture plate was incubated in an incubator at 37 °C with 5% CO2 overnight. A series of 3.16-fold gradient dilutions of a 1000× compound stock solution were prepared with DMSO, and then diluted 200-fold with the complete medium described above to give 5× compound stock solutions. On the day after cell seeding, 20 µL of the 5× compound stock solution was added to each cell culture well. As a result, the final concentration of the compound in the cell culture well became 1×, and the DMSO content in the well was 0.1%. In addition to the compound-treated wells described above, cell-containing DMSO control wells were also set. A complete medium containing 0.5% DMSO was added at 20 µL/well. After the mixture was well mixed, the culture plate was incubated in the incubator at 37 °C with 5% CO2 for another 3 h. The medium was then removed from the culture wells, and 50 µL of cell lysis buffer (from Advance ERK phospho-T202/Y204 kit) was added to each well. The mixture was well mixed, incubated for 30 min, and then transferred to a white-bottomed, opaque 96-well assay plate at 16 µL/well, and separately, 16 µL of cell lysis buffer was added to additional wells (serving as blank wells) in the assay plate. After the transfer was completed, 4 µL of p-ERK HTRF antibody mixture (from Advance ERK phospho-T202/Y204 kit) was added to each well of the assay plate, followed by a 4-hour incubation. The HTRF signal values (RLU) were then measured using a microplate reader, and the inhibition rate of the compound against p-ERK levels was calculated as follows: IR(%) = (RLUDMSO - RLUcompound)/(RLUDMSO - RLUblank) × 100%, where RLUDMSO is the average HTRF signal value from the DMSO control well samples, RLU is the average HTRF signal value from the blank well samples, and RLUcompound is the HTRF signal value from the compound-treated well samples. Using an XLfit software, the IR(%) values were plotted against the logarithm of the compound concentrations, and the dose-response curves were fitted using the four-parameter method to calculate the IC50 values.

[2] = tested on: NCI-H441 cells; experiment: 3D cell proliferation assay (CellTiter Glo-3D) in NCI-H441 cells; details: Homo sapiens, NCI-H441, 120 h, NCI-H441, human lung cancer cell strain, KRAS G12V mutation; 3D culture, 2% FBS, 5 days; read-out: H441 AP IC50
Outline: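 After a 5-day exposure at 37 °C to 3.16-fold serial dilutions (final DMSO 0.1%) in 2% FBS RPMI-1640, ATP luminescence (CellTiter-Glo 3D) was read. Cells were AsPC-1 (KRAS G12D) or NCI-H441 (KRAS G12V), 800 per well; inhibition used DMSO and medium-only controls, with four-parameter curve fitting giving IC50.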

[3] = tested on: p-ERK; experiment: Cell p-ERK assay (HTRF, Advance ERK phospho-T202/Y204 kit) in NCI-H441 cells; details: Homo sapiens, NCI-H441, 3 h, NCI-H441, human non-small cell lung cancer cell strain, KRAS G12V mutation; 3 h compound incubation
Outline: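 AsPC-1 (KRAS G12D) or NCI-H441 (KRAS G12V) cells seeded overnight, then treated 3 h at 37 °C with compound (0.1% DMSO) in RPMI-1640/10% FBS. Lysates assayed for ERK phospho-T202/Y204 by HTRF; inhibition vs DMSO and blank wells, IC50 from four-parameter fit.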

[4] = tested on: AsPC-1 cells; experiment: 3D cell proliferation assay (CellTiter Glo-3D) in AsPC-1 cells; details: ASPC1, 120 h; AsPC-1, human pancreatic cancer cell strain, KRAS G12D mutation; 3D culture, 2% FBS, 5 days; read-out: AsPC-1 AP IC50
From the text: MIA PaCa-2 cells were purchased from ATCC, Cat. No. CRL-1420; AsPC-1 cells were purchased from ATCC, Cat. No. CRL-1682; NCI-H441 cells were purchased from ATCC, Cat. No. HTB-174; NCI-H1975 cells were purchased from ATCC, Cat. No. CRL-5908; DMEM medium was purchased from Gibco, Cat. No. 11995-065; RPMI-1640 medium was purchased from Gibco, Cat. No. 11875-093; FBS was purchased from Gibco, Cat. No. 10099-141C; penicillin/streptomycin double-antibiotic solution (PS) was purchased from Gibco, Cat. No. 15140-122; Horse serum was purchased from Gibco, Cat. No. 16050130; trypsin (containing EDTA) was purchased from Gibco, Cat. No. 25200-072; DMSO was purchased from VWRAMRESCO, Cat. No. 0231-500ML; 384-well cell culture plates were purchased from Corning, Cat. No. 3830; white-bottomed, opaque 384-well assay plates were purchased from Corning, Cat. No. 3570; CellTiter Glo-3D kit was purchased from Promega, Cat. No. G9683; cell counter was purchased from CHEMOMETEC, model: NC-200; microplate reader was purchased from PerkinElmer, model: EnVision.
MIA PaCa-2, a human pancreatic cancer cell strain endogenously containing a KRAS^G12Cmutation, was cultured in a complete medium containing DMEM + 10% FBS + 2.5% Horse serum + 1% PS. AsPC-1, a human pancreatic cancer cell strain endogenously containing a KRAS^G12D mutation, was cultured in a complete medium containing RPMI-1640 + 10% FBS + 1% PS. NCI-H441 cells, a human lung cancer cell strain endogenously containing a KRAS^G12V mutation, were cultured in a complete medium containing RPMI-1640 + 10% FBS + 1% PS. NCI-H1975, a KRAS wild-type human lung cancer cell strain whose cell proliferation […], was cultured in a complete medium containing RPMI-1640 + 10% FBS + 1% PS.
The cells were digested with trypsin (containing EDTA), collected in their respective low-serum complete media containing 2% FBS (for MIA Paca-2 cell culture: DMEM + 2% FBS + 0.5% Horse serum + 1% PS), and counted. After the cell density was adjusted as required, MIA PaCa-2 cells (200 cells/well), AsPC-1 cells (800 cells/well), NCI-H441 cells (800 cells/well), or NCI-H1975 cells (400 cells/well) were seeded into a 384-well cell culture plate, with the volume of the medium in each well being 45 µL. The cell culture plate was incubated in an incubator at 37 °C with 5% CO2 overnight. A series of 3.16-fold gradient dilutions of a 1000× compound stock solution were prepared with DMSO, and then diluted 100-fold with the complete medium containing 2% FBS described above to give 10× compound stock solutions. On the day after cell seeding, 5 µL of the 10× compound stock solution was added to each cell culture well. As a result, the final concentration of the compound in the cell culture well became 1×, and the DMSO content in the well was 0.1%. In addition to the compound-treated wells described above, cell-containing DMSO control wells (with 5 µL of the complete medium containing 1% DMSO added to each well) and cell-free medium control wells (containing 50 µL of the complete medium with 2% FBS) were also set. The culture plate was incubated in an incubator at 37 °C with 5% CO2 for another 5 days, and then 30 µL of CellTiter-Glo working solution was added to each well. The mixture was well mixed, incubated for 30 min, left to stand at room temperature for 30 min, and then transferred to a white-bottomed, opaque 384-well assay plate at 40 µL/well. The chemiluminescence values (RLU) were measured using a microplate reader, and the cell proliferation inhibition rate for each well was calculated: IR(%) = (RLUDMSO - RLUcompound)/(RLUDMSO - RLUblank) × 100%, where RLUDMSO is the average RLU signal value from the DMSO control well samples, RLUblank is the average RLU signal value from the medium control well samples, and RLUcompound is the RLU signal value from the compound-treated well samples. […]

| Structure (SMILES) | IC50 [1] [nM] | IC50 [2] [nM] | IC50 [3] [nM] | IC50 [4] [nM] |
| --- | --- | --- | --- | --- |
| CCn1cc2c(c1-c1cc(C#CCN3CCC(C#N)CC3)cnc1[C@H](C)OC)CC(C)(C)COC(=O)[C@@H]1CCCN(N1)C(=O)[C@@H](NC(=O)[C@H]1[C@H](C)[C@@H]1C)Cc1nc(cs1)/C=C/2 (atropisomer, axis not shown; (Ra)) [Compound Z49, (1r,2R,3S)-N-((4 ^2Z,8^3S,2E,6S)-(Ra)-1^5-(5-(3-(4-cyanopiperidin-1-yl)prop-1-yn-1-yl)-2-((S)-1-methoxyethyl)pyridin-3-yl)-1^1-ethyl-12,12-dimethyl-7,9-dioxo-8^1,8^2,8^3,8^4,8^5,8^6-hexahydro-1^1H-10-oxa-4(4,2)-thiazola-8(1,3)-pyridazina-1(3,4)-pyrrolacyclotridecaphan-2-en-6-yl)-2,3-dimethylcyclopropane-1-carboxamide] | 0.13 | 0.14 | 0.17 | 0.08 |
| CO[C@@H](C)c1ncc(C#CCN2CCC(C#N)(CN)CC2)cc1-c1c2c(nn1C(C)C)/C=C/c1csc(n1)C[C@H](NC(=O)[C@H]1[C@H](C)[C@@H]1C)C(=O)N1CCC[C@H](N1)C(=O)OCC(C)(C)C2 (atropisomer, axis not shown; (Ra)) [Compound Z62] | 4.9 | 4.56 | 3.5 | 5.12 |
| CCn1cc2c(c1-c1cc(C#CCN3CCCOCC3)cnc1[C@H](C)OC)CC(C)(C)COC(=O)[C@@H]1CCCN(N1)C(=O)[C@@H](NC(=O)[C@H]1[C@H](C)[C@@H]1C)Cc1nc(cs1)/C=C/2 (atropisomer, axis not shown; (Ra)) [Compound Z69, (1r,2R,3S)-N-((4^2Z,8^3S,2E,6S)-(Ra)-1^5-(5-(3-(1,4-oxazepan-4-yl)prop-1-yn-1-yl)-2-((S)-1-methoxyethyl)pyridin-3-yl)-1^1-ethyl-12,12-dimethyl-7,9-dioxo-8^1,8^2,8^3,8^4,8^5,8^6-hexahydro-1^1H-10-oxa-4(4,2)-thiazola-8(1,3)-pyridazina-1(3,4)-pyrrolacyclotridecaphan-2-en-6-yl)-2,3-dimethylcyclopropane-1-carboxamide] | 1.54 | 0.58 | 0.9 | 0.67 |

The remaining lines, values ahead:

| IC50 [1] [nM] | IC50 [2] [nM] | IC50 [3] [nM] | IC50 [4] [nM] | Structure (SMILES) |
| --- | --- | --- | --- | --- |
| 0.11 | 0.14 | 0.29 | 0.19 | CCn1cc2c(c1-c1cc(C#CCN3CCC(C#N)CC3)cnc1[C@H](C)OC)CC(C)(C)COC(=O)[C@@H]1CCCN(N1)C(=O)[C@@H](NC(=O)[C@H]1[C@@H]3COC[C@@H]31)Cc1nc(cs1)/C=C/2 (atropisomer, axis not shown; (Ra)) [Compound Z50, (1R,5S,6r)-N-((4^2Z,8^3S,2E,6S)-(Ra)-1^5-(5-(3-(4-cyanopiperidin-1-yl)prop-1-yn-1-yl)-2-((S)-1-methoxyethyl)pyridin-3-yl)-1^1-ethyl-12,12-dimethyl-7,9-dioxo-8^1,8^2,8^3,8^4,8^5,8^6-hexahydro-1^1H-10-oxa-4(4,2)-thiazola-8(1,3)-pyridazina-1(3,4)-pyrrolacyclotridecaphan-2-en-6-yl)-3-oxabicyclo[3.1.0]hexane-6-carboxamide] |
| 0.14 | 0.17 | 0.58 | 0.1 | CCn1cc2c(c1-c1cc(C#CCN3CCC(C#N)(CN)CC3)cnc1[C@H](C)OC)CC(C)(C)COC(=O)[C@@H]1CCCN(N1)C(=O)[C@@H](NC(=O)[C@H]1[C@H](C)[C@@H]1C)Cc1nc(cs1)/C=C/2 (atropisomer, axis not shown; (Ra)) [Compound Z65] |
| 0.16 | 0.18 | 0.38 | 0.24 | CCn1cc2c(c1-c1cc(C#CCN3CCC(C#N)(CN)CC3)cnc1[C@H](C)OC)CC(C)(C)COC(=O)[C@@H]1CCCN(N1)C(=O)[C@@H](NC(=O)[C@H]1[C@@H]3COC[C@@H]31)Cc1nc(cs1)/C=C/2 (atropisomer, axis not shown; (Ra)) [Compound Z66] |
